Laboratory results from patent US20240018136A1, “CDK Inhibitors And Their Use As Pharmaceuticals” (Prelude Therapeutics, Incorporated, priority 2022, published 2024).

Key:
OVCAR3 p-RB = experiment: pRB ICW assay in OVCAR3 cells; type: cell-based; settings: Homo sapiens, OVCAR-3, incubated with compound for 2 hours
In short: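 OVCAR3 cells were treated 2 h at 37 °C with a 9-point half-log compound series, in duplicate, with 10 μM reference compound as maximum inhibition. Cells were then fixed, permeabilized and stained with anti-phospho-RB plus DRAQ5. In-cell western intensities were read at 700/800 nm on Odyssey CLx.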

CDK4/Cyclin D1 = molecular target: T1, CDK4/Cyclin D1 (Homo sapiens, UniProt P11802); experiment: CDK4/CyclinD1 enzymatic activity assay (TR-FRET); type: biochemical; settings: ATP 2 mM final, read-out: CDK4_D1 IC50
T1 construct: purchased ProQinase; host or cells: insect cell
T1 sequence (P11802 whole entry): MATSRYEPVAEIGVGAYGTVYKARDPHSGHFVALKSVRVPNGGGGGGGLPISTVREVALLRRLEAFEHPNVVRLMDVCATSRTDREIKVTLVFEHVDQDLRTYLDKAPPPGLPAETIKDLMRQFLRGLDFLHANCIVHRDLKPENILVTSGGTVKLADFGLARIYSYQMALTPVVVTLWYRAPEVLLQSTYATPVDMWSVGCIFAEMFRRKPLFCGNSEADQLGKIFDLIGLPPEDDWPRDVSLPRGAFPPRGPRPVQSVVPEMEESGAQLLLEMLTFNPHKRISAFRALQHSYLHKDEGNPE
T1 sequence (P24385 whole entry partner): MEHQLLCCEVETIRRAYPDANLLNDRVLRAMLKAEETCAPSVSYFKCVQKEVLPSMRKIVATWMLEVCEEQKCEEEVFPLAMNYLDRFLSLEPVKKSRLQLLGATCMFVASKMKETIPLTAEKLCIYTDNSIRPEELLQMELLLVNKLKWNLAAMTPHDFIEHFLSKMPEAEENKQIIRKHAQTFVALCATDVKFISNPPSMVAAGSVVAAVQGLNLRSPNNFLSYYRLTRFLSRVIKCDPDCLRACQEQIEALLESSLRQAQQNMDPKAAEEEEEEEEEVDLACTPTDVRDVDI
In short: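 Insect-cell-expressed CDK4/Cyclin D1 (1 nM) phosphorylated ULight-4E-BP1 peptide (100 nM) at 2 mM ATP in HEPES pH 7.4 buffer after 20 min compound preincubation. Reaction started with 10 mM MgCl2, ran 45 min at 37 °C, then EDTA quench and Eu-anti-phospho-4E-BP1 TR-FRET detection. IC50 from 9-point 3-fold dilutions, 4-parameter fit.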

CDK2/Cyclin E2 = CDK2/Cyclin E2 (Homo sapiens, UniProt P24941); experiment: CDK2/CyclinE2 enzymatic activity assay (TR-FRET); type: biochemical; settings: ATP 1 mM final, read-out: CDK2_E1 IC50
In short: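 Insect-cell-expressed CDK2/Cyclin E2 (1 nM), ULight-4E-BP1 (50 nM) and ATP (1 mM) in HEPES pH 7.4 buffer were preincubated 20 min at RT with compound (9-dose, 3-fold), started with 10 mM MgCl2 and run 45 min at 37 °C. EDTA/Eu-anti-P-4E-BP1 stop, 60 min TR-FRET detection; IC50 from 4-parameter Hill fit.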

IC50 (OVCAR3 p-RB) [µM]	IC50 (CDK4/Cyclin D1) [µM]	IC50 (CDK2/Cyclin E2) [µM]	SMILES
≤ 0.1	≤ 0.1	≤ 0.1	CNc1ncc(-c2nc(NC3CCN(S(C)(=O)=O)CC3)ncc2C(F)(F)F)s1 [Example 28, N-methyl-5-[2-[(1-methylsulfonylpiperidin-4-yl)amino]-5-(trifluoromethyl)pyrimidin-4-yl]-1,3-thiazol-2-amine]
> 1	≤ 0.1	≤ 0.1	CS(=O)(=O)N1CCC(Nc2ncc(C(F)(F)F)c(-c3cnc(NC(=O)C(F)(F)F)s3)n2)CC1 [Example 57, 2,2,2-Trifluoro-N-[5-[2-[(1-methylsulfonylpiperidin-4-yl)amino]-5-(trifluoromethyl)pyrimidin-4-yl]-1,3-thiazol-2-yl]acetamide]
0.1 to 1	≤ 0.1	≤ 0.1	CC(C)(O)Cc1ncc(-c2nc(NC3CCN(S(=O)(=O)CCCN4CCOCC4)CC3)ncc2C(F)(F)F)s1 [Example 79, 2-methyl-1-(5-(2-((1-((3-morpholinopropyl)sulfonyl)piperidin-4-yl)amino)-5-(trifluoromethyl)pyrimidin-4-yl)thiazol-2-yl)propan-2-ol]
> 1	0.1 to 1	≤ 0.1	CCNS(=O)(=O)N1CCC(Nc2ncc(C(F)(F)F)c(-c3cnc(C)s3)n2)CC1 [Example 48, N-Ethyl-4-((4-(2-methylthiazol-5-yl)-5-(trifluoromethyl)pyrimidin-2-yl)amino)piperidine-1-sulfonamide]
